Source: the supplement of paper PMC10412643

What was measured:
Conditions in all cases: CAMHB, incubation time 20 h
meropenem = compound: C[C@@H](O)[C@H]1C(=O)N2C(C(=O)O)=C(S[C@@H]3CN[C@H](C(=O)N(C)C)C3)[C@H](C)[C@H]12 [meropenem]
ceftazidime = compound: CC(C)(O/N=C(\C(=O)N[C@@H]1C(=O)N2C(C(=O)[O-])=C(C[n+]3ccccc3)CS[C@H]12)c1csc(N)n1)C(=O)O [ceftazidime]
cefiderocol = compound: CC(C)(O/N=C(\C(=O)N[C@@H]1C(=O)N2C(C(=O)[O-])=C(C[N+]3(CCNC(=O)c4ccc(O)c(O)c4Cl)CCCC3)CS[C@H]12)c1csc(N)n1)C(=O)O [cefiderocol]

Test System | MIC (meropenem; avibactam 0 µg/mL) | MIC (meropenem; avibactam 8 µg/mL) | MIC (ceftazidime; avibactam 0 µg/mL) | MIC (ceftazidime; avibactam 8 µg/mL) | MIC (cefiderocol; avibactam 0 µg/mL) | MIC (cefiderocol; avibactam 8 µg/mL)
S. maltophilia K279a | 2 µg/mL | 2 µg/mL | 2 µg/mL | 1 µg/mL | 0.125 µg/mL | 0.125 µg/mL
B. cenocepacia VC14488 | 4 µg/mL | 1 µg/mL | – | 2 µg/mL | 0.25 µg/mL | 0.25 µg/mL
B. cenocepacia 110041 | 32 µg/mL | 4 µg/mL | – | – | 0.0625 µg/mL | 0.0625 µg/mL
P. aeruginosa 71 | 32 µg/mL | 4 µg/mL | > 128 µg/mL | 4 µg/mL | 4 µg/mL | 4 µg/mL
S. maltophilia 05 41846 | > 64 µg/mL | > 64 µg/mL | 4 µg/mL | 4 µg/mL | 0.5 µg/mL | 0.5 µg/mL
B. gladioli 113611 | 2 µg/mL | 2 µg/mL | 32 µg/mL | 32 µg/mL | 4 µg/mL | 4 µg/mL
P. aeruginosa 20NB681421 | 1 µg/mL | 0.5 µg/mL | 4 µg/mL | 4 µg/mL | 1 µg/mL | 1 µg/mL
B. multivorans C5393 | 16 µg/mL | 1 µg/mL | 8 µg/mL | – | 0.25 µg/mL | 0.25 µg/mL
P. aeruginosa 74 | 16 µg/mL | 2 µg/mL | 128 µg/mL | 2 µg/mL | > 4 µg/mL | > 4 µg/mL
B. vietnamiensis VC18984 | 8 µg/mL | 4 µg/mL | 16 µg/mL | – | > 4 µg/mL | > 4 µg/mL
P. aeruginosa 21NE72623 | 0.5 µg/mL | 0.125 µg/mL | 16 µg/mL | 2 µg/mL | > 4 µg/mL | > 4 µg/mL
B. cenocepacia VC10414 | 32 µg/mL | 2 µg/mL | 8 µg/mL | – | 0.125 µg/mL | 0.125 µg/mL
B. vietnamiensis CEP40 | 1 µg/mL | 1 µg/mL | – | 2 µg/mL | 0.125 µg/mL | 0.0625 µg/mL
P. aeruginosa PAO1 | 0.5 µg/mL | 0.5 µg/mL | 1 µg/mL | 1 µg/mL | 1 µg/mL | 1 µg/mL
B. multivorans 130034 | 8 µg/mL | 4 µg/mL | 8 µg/mL | 8 µg/mL | 0.125 µg/mL | 0.125 µg/mL
B. multivorans VC15555 | 8 µg/mL | 4 µg/mL | 2 µg/mL | 2 µg/mL | > 4 µg/mL | > 4 µg/mL
B. multivorans VC9825 | 2 µg/mL | 1 µg/mL | 2 µg/mL | 2 µg/mL | 0.25 µg/mL | 0.125 µg/mL
B. cenocepacia K56-2 | 16 µg/mL | 2 µg/mL | 32 µg/mL | – | 0.125 µg/mL | 0.125 µg/mL
A. xylosoxidans ACH02 | 1 µg/mL | 1 µg/mL | 2 µg/mL | 2 µg/mL | 0.25 µg/mL | 0.25 µg/mL
B. vietnamiensis VC11431 | 16 µg/mL | 1 µg/mL | 32 µg/mL | 2 µg/mL | 1 µg/mL | 0.125 µg/mL

Test System | MIC (meropenem; avibactam 0 µg/mL) | MIC (meropenem; avibactam 8 µg/mL) | MIC (ceftazidime; avibactam 0 µg/mL) | MIC (ceftazidime; avibactam 8 µg/mL) | MIC (cefiderocol; avibactam 0 µg/mL) | MIC (cefiderocol; avibactam 8 µg/mL)
B. cenocepacia 130723 | 4 µg/mL | 1 µg/mL | 16 µg/mL | 8 µg/mL | 0.5 µg/mL | 0.25 µg/mL
B. multivorans VC19694 | 8 µg/mL | 4 µg/mL | – | 1 µg/mL | 1 µg/mL | 1 µg/mL
B. multivorans V1120157 | 1 µg/mL | 1 µg/mL | 2 µg/mL | 2 µg/mL | 0.125 µg/mL | 0.125 µg/mL
B. multivorans VC15535 | 16 µg/mL | 8 µg/mL | 32 µg/mL | 16 µg/mL | 0.5 µg/mL | 0.5 µg/mL
B. cenocepacia 134991 | 2 µg/mL | 2 µg/mL | 8 µg/mL | 8 µg/mL | > 4 µg/mL | > 4 µg/mL
A. xylosoxidans ACH09 | 0.125 µg/mL | 0.125 µg/mL | 1 µg/mL | 1 µg/mL | 0.25 µg/mL | 0.25 µg/mL
S. maltophilia 20NC580771 | > 64 µg/mL | > 64 µg/mL | > 128 µg/mL | > 128 µg/mL | 0.25 µg/mL | 0.25 µg/mL
B. contaminans 21NG609698 | 32 µg/mL | 8 µg/mL | 16 µg/mL | – | 2 µg/mL | 2 µg/mL
S. maltophilia 21NE928511 | > 64 µg/mL | > 64 µg/mL | > 128 µg/mL | > 128 µg/mL | > 4 µg/mL | > 4 µg/mL
B. multivorans F9091687 | 0.5 µg/mL | 0.5 µg/mL | 2 µg/mL | 2 µg/mL | 0.25 µg/mL | 0.25 µg/mL
A. xylosoxidans ACH03 | 0.25 µg/mL | 0.25 µg/mL | 1 µg/mL | 1 µg/mL | 0.125 µg/mL | 0.125 µg/mL
B. dolosa LM018941 | 16 µg/mL | 0.5 µg/mL | 16 µg/mL | 2 µg/mL | > 4 µg/mL | > 4 µg/mL
B. cenocepacia F4200989-3 | 32 µg/mL | 4 µg/mL | 128 µg/mL | 32 µg/mL | 2 µg/mL | 1 µg/mL
B. cenocepacia F9141525 | 32 µg/mL | 4 µg/mL | 128 µg/mL | 16 µg/mL | 0.5 µg/mL | 0.5 µg/mL
B. cenocepacia G11815681 | 32 µg/mL | 2 µg/mL | 16 µg/mL | 8 µg/mL | 2 µg/mL | 0.5 µg/mL
B. dolosa AU2167 | 32 µg/mL | 1 µg/mL | 64 µg/mL | – | > 4 µg/mL | > 4 µg/mL
B. dolosa AU6940 | 32 µg/mL | 2 µg/mL | 16 µg/mL | 16 µg/mL | 2 µg/mL | 2 µg/mL
S. maltophilia 04 T22674 | 16 µg/mL | 16 µg/mL | 2 µg/mL | 2 µg/mL | 0.5 µg/mL | 0.5 µg/mL
S. maltophilia D457 | 32 µg/mL | 32 µg/mL | 1 µg/mL | 1 µg/mL | 0.125 µg/mL | 0.125 µg/mL
B. multivorans LM013010 | 8 µg/mL | 1 µg/mL | – | – | 0.25 µg/mL | 0.25 µg/mL
